Results as given in paper PMC8584265, “Stress Driven Discovery of Natural Products From Actinobacteria with Anti-Oxidant and Cytotoxic Activities Including Docking and ADMET Properties” (International Journal of Molecular Sciences, 2021).
Values after ≈ are worked out from the molar mass of the structure shown. Where two headings read alike, the source gives them in different places.

What was measured:
NO scavenging assay = assay type: biochemical; conditions: for IC50 NO Inhibition: mean ± SD, triplicate
Experimental: (§1) To evaluate the antioxidant potential of the stress compound, a multifaceted antioxidant evaluation of a stress compound was performed via DPPH scavenging assay, OH● radical scavenging assay, NO scavenging assay, and Iron chelating assay by following pre-described protocols.

[1] = DPPH radical scavenging assay; assay type: biochemical; conditions: for inhibition of free radical (DPPH): 100 µg/mL; for IC50 DPPH Scavenging: mean ± SD, triplicate
Experimental: as §1

[2] = test system: prostate cancer cells (PC3); assay: MTT cytotoxicity assay; assay type: cell-based; conditions: Homo sapiens
Experimental: MTT assay was used to assess cytotoxicity against the human prostate PC3 cell line. […] PC3 cells were cultured in a humidified CO2 incubator at 37 °C in complete growth medium RPMI 1640 enriched with 2.2 g/L NaHCO3, 100 µg/mL streptomycin sulfate, 10% v/v heat-inactivated fetal bovine serum (HIFBS), […] amphotericin B, and 100 IU/mL penicillin G sodium. 20 µL of a compound in 1% DMSO in PBS and 180 µL of PC3 cancer cells were combined in a 96-well plate to reach a final concentration of 20 µg/mL for evaluating the cytotoxicity on PC3 cancer cells. The cells were loaded at an assay density of 1 × 10^4 cells/mL. The plate was incubated in humidified 5% CO2 at 37 °C for 24 h, 48 h, and 72 h. Cabazitaxel was utilized as a positive control, and 1 percent DMSO in PBS was employed as a negative control. Cabazitaxel was procured from Enzo life sciences, Fisher Scientific (Thermo Fisher Scientific, California, USA) CAS-183133-96-2 (ENZCHM2170010). A stock solution (4 mg/mL) of Cabazitaxel was prepared in DMSO and diluted in 1× PBS to make it 1% DMSO. Then serial dilutions of the standard compound were prepared in such a way that wells received 50, 25, 12.5, 6.25, and 3.12 µg/mL of Cabazitaxel with ≤1% DMSO. After that, 20 µL of pre-filter sterilized MTT solution was added to plates and incubated at 37 °C for 4 h in a CO2 incubator. Colored formazan crystals were detached by deliberately removing the supernatant and dissolved in 100 µL of DMSO with absorbance measured at 540 nm using Elx 800 microplate reader. Cytotoxicity was calculated using the following formula:% cytotoxicity = [100−(As/Ac × 100)] (1) where As and Ac show the absorbance of sample and negative control, respectively. Cytotoxicity was calculated with GraphPad Prism 5 software.

Iron chelating assay = assay type: biochemical; conditions: for IC50 Iron Chelation: mean ± SD, triplicate
Experimental: as §1

blood lymphocytes = assay: Comet assay (genotoxicity); assay type: cell-based
Experimental: To evaluate toxicity, blood lymphocytes were treated with 10 and 20 µg/mL MVL samples, 20 µg/mL EMS (positive), 1% DMSO in PBS (negative control), and comet assay was performed. The slides were envisioned under a fluorescent microscope, and the extent of DNA damage was evaluated by analyzing the photomicrographs via CASP 1.2.3.b image analysis. Analysis of 50–100 cells from each sample was performed to assess comet length, head length, tail length, tail moment, DNA content in the head, and tail of lymphocytes. […] The tail length (18.5 ± 1.4 µm) of EMS-treated DNA clearly indicates the production of nicks in nuclear content, representing a greater extent of genotoxicity. […]

[3] = OH● radical scavenging assay; assay type: biochemical; conditions: for inhibition of OH● radicals: 100 µg/mL; for IC50 OH● Inhibition: mean ± SD, triplicate
Experimental: as §1

PC3 cells = assay: In vitro scratch (cell migration) assay; assay type: cell-based, human; conditions: PC3, 10 µg/mL, 24 h treatment; control 16.62 ± 4.4%
Experimental: Stress compound MVL was tested for cell migration of PC3 using an established in vitro scratch test for 24 h. MVL (10 µg/mL) appeared to induce a significant reduction in cell migration at 12 and 24 h treatment of PC3. This was estimated by comparing the scratch area at every observation time as a percentage of control at 0 h. The area of scratch at 24 h treatment with MVL was recorded as 61.10 ± 5.2% compared to control (16.62 ± 4.4%) (Figure 5).
Figure 5 In vitro scratch assay on MVL treated prostate cancer cells. PC3 cells were plated in 6-well plates and scratched at the full confluence. […] Reduction in the area of the scratch was Photographed using Olympus CKX41 microscope and measured using ImageJ software. Data is mean ± SEM percent area of scratch in triplicate at ***: p < 0.001 and ****: p < 0.0001.
In vitro wounds were induced by a modified protocol described, and the scratch assay was performed on cells to study the effect of stress compound on cell migration. In the growth medium of 24-well plates, […] were injected at a density of 5 × 10^4 cells/well. After achieving about 100% proliferation, the cells were shifted to the basal media for 24 h. […] Images were recorded instantly after being wounded and then again portrayed at 0, 12, and 24 h time points. Using Image J software, cell migration rates were quantified by measuring the wound area change (pixels).

P53 = assay: Western blot expression analysis in PC3 cells; assay type: cell-based, human; conditions: PC3, 0, 5 and 10 µg/mL, 48 h
Experimental: (§2) To unveil the possible mechanistic reason behind the anti-proliferation of cancer cell colonies in MTT assays, expression analysis of apoptotic proteins P53, BCL-2 and BAX were assessed via western blot technique (Figure 6). GAPDH served as a loading control. Prostate cancer cells (PC3) were treated with compound MVL at three concentrations (0, 5, and 10 µg/mL) for 48 h. Protein (40–60 µg) from protein lysate was segregated and probed with specified monoclonal antibodies.
(§3) Figure 6 Western blot analysis of proteins associated with MVL induced apoptosis. Prostate cancer cells, PC3 were treated with MVL at a concentration of 0, 5, and 10 µg/mL for 48 h. […] GAPDH was used as a loading control. Fold change in P-53, BAX, and BCL-2 expression after treating for 48 h with different concentrations of MVL. Means with different superscripts (^a–c) indicate significant (p < 0.001) difference in fold change between groups.
(§4) PC3 cells were cultured in a T75 flask (1 × 10^6/flask). After 48 h, cells were treated with […]. Following treatment, media was aspirated and cells were washed with cold PBS whose pH was maintained at 7.4 trypsinized and pelleted in 15 mL falcon tubes, and cold lysis buffer was added to the pellet. Protein extraction and western blot analysis were done by following the protocol described previously.

BCL-2 = assay: Western blot expression analysis in PC3 cells; assay type: cell-based, human; conditions: PC3, 0, 5 and 10 µg/mL, 48 h
Experimental: as §2, §3, §4

BAX = assay: Western blot expression analysis in PC3 cells; assay type: cell-based, human; conditions: PC3, 0, 5 and 10 µg/mL, 48 h
Experimental: as §2, §3, §4

**Q.** Which “inhibition of NO free radicals” value (NO scavenging assay) does the source give for O=C1O[C@H]([C@@H](O)CO)C(O)=C1O [Ascorbic acid, reference compound] here?
**A.** 81.69 ± 2.69%

**Q.** And the “IC50 NO Inhibition” value (NO scavenging assay)?
**A.** 8.44 ± 4.17 µg/mL (≈ 47.9 µM)

**Q.** What about the “inhibition of free radical (DPPH)” value [1] of the same compound?
**A.** 84.23 ± 2.9%

**Q.** And the “IC50 DPPH Scavenging” value [1]?
**A.** 6.52 ± 4.92 µg/mL (≈ 37 µM)

**Q.** Which IC50 ([2]; 24 h, read-out: IC50 24 h) does the source give for CO[C@H]1C(=O)[C@]2(C)[C@@H](OC)C[C@H]3OC[C@@]3(OC(C)=O)[C@H]2[C@H](OC(=O)c2ccccc2)[C@]2(O)C[C@H](OC(=O)[C@H](O)[C@@H](NC(=O)OC(C)(C)C)c3ccccc3)C(C)=C1C2(C)C [Cabazitaxel, reference compound] here?
**A.** 21.2 ± 5.1 µg/mL (≈ 25.3 µM)

**Q.** What about the IC50 ([2]; 48 h, read-out: IC50 48 h) of the same compound?
**A.** 15.1 ± 5.7 µg/mL (≈ 18.1 µM)

**Q.** What about the IC50 ([2]; 72 h, read-out: IC50 72 h) of the same compound?
**A.** 9.25 ± 3.4 µg/mL (≈ 11.1 µM)

**Q.** With O=C(O)CN(CCN(CC(=O)O)CC(=O)O)CC(=O)O [EDTA, reference compound] as the compound, how does the iron chelation capacity (Iron chelating assay) read?
**A.** 81.52 ± 4.67%

**Q.** And the “IC50 Iron Chelation” value (Iron chelating assay)?
**A.** 10.20 ± 6.54 µg/mL (≈ 34.9 µM)

**Q.** Which results are given for CCOS(C)(=O)=O [EMS, Ethyl methane sulfonate, reference compound]?
**A.** % DNA in Head (blood lymphocytes; 20 µg/mL): 56.6 ± 3.5%; % DNA in Tail (blood lymphocytes; 20 µg/mL): 43.4 ± 1.8 ^¥ %; Comet Length (blood lymphocytes; 20 µg/mL): 42.6 ± 3.6 µm; Head Length (blood lymphocytes; 20 µg/mL): 24.1 ± 2.7 µm; Tail Length (blood lymphocytes; 20 µg/mL): 18.5 ± 1.4 µm; Tail Moment (blood lymphocytes; 20 µg/mL): 1.37 ± 0.11 ^¥ µm

**Q.** Which “inhibition of OH● radicals” value [3] does the source give for O=C(O)c1cc(O)c(O)c(O)c1 [Gallic acid, reference compound] here?
**A.** 83.15 ± 3.67%

**Q.** And the “IC50 OH● Inhibition” value [3]?
**A.** 6.26 ± 6.39 µg/mL (≈ 36.8 µM)

**Q.** For CC1=CC(=O)OCC1 [MVL, anhydromevalonolactone], which “inhibition of OH● radicals” value [3] is on record?
**A.** 72.69 ± 4.93%

**Q.** What about the “IC50 OH● Inhibition” value [3] of the same compound?
**A.** 19.65 ± 5.22 µg/mL (≈ 175 µM)

**Q.** What about the “% DNA in Head” value (blood lymphocytes; 10 µg/mL) of the same compound?
**A.** 86.1 ± 2.8%

**Q.** What about the “% DNA in Tail” value (blood lymphocytes; 10 µg/mL) of the same compound?
**A.** 13.9 ± 1.8 ^β %

**Q.** And the “Comet Length” value (blood lymphocytes; 10 µg/mL)?
**A.** 42.6 ± 3.1 µm

**Q.** What about the “Head Length” value (blood lymphocytes; 10 µg/mL) of the same compound?
**A.** 36.7 ± 2.5 µm

**Q.** What about the “Tail Length” value (blood lymphocytes; 10 µg/mL) of the same compound?
**A.** 5.9 ± 0.3 µm

**Q.** And the “Tail Moment” value (blood lymphocytes; 10 µg/mL)?
**A.** 0.11 ± 0.03 ^β µm

**Q.** What about the “% DNA in Head” value (blood lymphocytes; 20 µg/mL) of the same compound?
**A.** 80.6 ± 1.8%

**Q.** And the “% DNA in Tail” value (blood lymphocytes; 20 µg/mL)?
**A.** 19.4 ± 2.6 ^β, ¥ %

**Q.** And the “Comet Length” value (blood lymphocytes; 20 µg/mL)?
**A.** 41.4 ± 2.4 µm

**Q.** And the “Head Length” value (blood lymphocytes; 20 µg/mL)?
**A.** 31.7 ± 1.8 µm

**Q.** What about the “Tail Length” value (blood lymphocytes; 20 µg/mL) of the same compound?
**A.** 8.5 ± 1.3 µm

**Q.** What about the “Tail Moment” value (blood lymphocytes; 20 µg/mL) of the same compound?
**A.** 0.24 ± 0.03 ^β, ¥ µm

**Q.** What about the “area of scratch as percentage of control at 0 h” value (PC3 cells) of the same compound?
**A.** 61.10 ± 5.2%

**Q.** And the “inhibition of NO free radicals” value (NO scavenging assay)?
**A.** 80.05 ± 3.88%

**Q.** What about the “IC50 NO Inhibition” value (NO scavenging assay) of the same compound?
**A.** 15.49 ± 4.8 µg/mL (≈ 138 µM)

**Q.** What about the iron chelation capacity (Iron chelating assay) of the same compound?
**A.** 70.96 ± 5.79%

**Q.** What about the “IC50 Iron Chelation” value (Iron chelating assay) of the same compound?
**A.** 19.38 ± 7.11 µg/mL (≈ 173 µM)

**Q.** What about the “inhibition of free radical (DPPH)” value [1] of the same compound?
**A.** 78.18 ± 4.2%

**Q.** What about the “IC50 DPPH Scavenging” value [1] of the same compound?
**A.** 19.65 ± 5.7 µg/mL (≈ 175 µM)

**Q.** What about the P53 protein expression (P53) of the same compound?
**A.** upregulation

**Q.** What about the BCL-2 protein expression (BCL-2) of the same compound?
**A.** downregulation

**Q.** And the BAX protein expression (BAX)?
**A.** upregulation

**Q.** What about the IC50 ([2]; 24 h, read-out: IC50 24 h) of the same compound?
**A.** 35.8 ± 4.2 µg/mL (≈ 319 µM)

**Q.** What about the IC50 ([2]; 48 h, read-out: IC50 48 h) of the same compound?
**A.** 23.3 ± 3.8 µg/mL (≈ 208 µM)

**Q.** What about the IC50 ([2]; 72 h, read-out: IC50 72 h) of the same compound?
**A.** 16.2 ± 6.5 µg/mL (≈ 145 µM)
